Like-named read-outs stand apart in the source and are kept apart here.
What was measured:
Trypsin (bovine) = molecular target: T1, Trypsin (bovine) (Bos taurus, UniProt P00760); assay: Determination of selectivity of the inhibitor activity against thrombin with respect to trypsin inhibition (chromogenic substrate S-2222); type: biochemical; conditions: for Ki: bovine trypsin 1 mU/mL, S-2222 100 and 50 μM, HBSA buffer pH 7.5; for Ki trypsin/ Ki thrombin: selectivity, ratio of Ki for trypsin to Ki for thrombin
T1 construct: purchased Sigma
T1 sequence (P00760 24-246): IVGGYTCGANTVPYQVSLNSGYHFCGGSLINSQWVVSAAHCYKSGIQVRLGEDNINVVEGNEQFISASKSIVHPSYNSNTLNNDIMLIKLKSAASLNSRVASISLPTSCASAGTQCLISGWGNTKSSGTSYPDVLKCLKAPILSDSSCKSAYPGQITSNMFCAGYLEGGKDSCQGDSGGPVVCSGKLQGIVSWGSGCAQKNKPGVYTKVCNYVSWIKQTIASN
Procedure: II. Determination of Selectivity of the Inhibitor Activity Against Thrombin with Respect to Trypsin Inhibition
The inhibitory activity against thrombin is determined as described above. Trypsin inhibition is measured in the same manner as in determination of inhibitory activity for thrombin except that a different chromogenic substrate is used. For both enzymes Ki is calculated. Selectivity of the inhibitor is expressed as a ratio of Ki for trypsin to Ki for thrombin.
Trypsin (bovine, 6000 BAEE Units/mg protein, Sigma): A stock solution of trypsin with the activity of 300 U/mL is prepared, pipetted into 0.2 mL aliquots and stored at −70° C. Immediately before use, the stock solution is thawed and a working solution of 4 mU/mL is prepared with HBSA buffer. The final trypsin activity in a microtiter plate is 1 mU/mL.
Before use the stock solution is thawed and 400 and 200 μM substrate solutions are prepared The final concentrations of the substrate in the reaction mixture are 100 and 50 μM.
(§1) HBSA buffer, pH 7.5: 10 mM Hepes buffer (HEPES, Sigma), 150 mM NaCl and 0.1% (w/v) bovine serum albumin (98% bovine serum albumin, Sigma) are dissolved in bidistilled water. The pH is adjusted with 0.1 M NaOH solution.
Working solutions (final concentrations in the range from 10 to 600 μM) are prepared with distilled water.
(§2) Each measurement is carried out in triplicate and the result is the averaged value of three measurements.
The procedure is the same as the procedure described for determination of the inhibitory activity against thrombin. The concentrations of the reagents described for determination of the inhibitory activity with respect to trypsin are used.
(§3) 4. Determination of the Inhibition Constant (Ki)
It is determined in the same manner as determination of Ki for thrombin.
5. Determination of the Selectivity
Ki for thrombin and Ki for trypsin are determined. The selectivity is defined as the ratio: […]

human thrombin = molecular target: T2, human thrombin (Homo sapiens, UniProt P00734); assay: Enzyme assay for determination of the activity of thrombin inhibitors (chromogenic substrate S-2238); type: biochemical
T2 construct: Thrombin (human thrombin, 308 NIH units, Sigma); purchased Sigma
Procedure: I. Enzyme Assay for Determination of the Activity of Thrombin Inhibitors
Thrombin cleaves amide bonds in a synthetic chromogenic substrate whereby […] coloured p-nitroaniline (p-NA) is released. The amount of p-NA produced is directly proportionate to the absorbance measured at a wavelength of 405 nm using a spectrophotometer. When thrombin inhibitor is added, the amidolytic activity of the enzyme decreases. The potency of the inhibitor is expressed by the inhibition constant (Ki).
The stock solution is pipetted into 0.5 mL aliquots and stored at −70° C. Immediately before use a working solution of thrombin of […] is prepared with HBSA buffer. The final concentration of thrombin in a microtiter plate is 0.5 NIH units/mL.
1 mM substrate solution is prepared, pipetted into 0.5 mL aliquots and stored at −20° C. Before use, 160 and 80 μM substrate solutions of the substrate are prepared with distilled water.
as §1
Working solutions (final concentrations within the range 10 to 100 μM) are prepared with distilled water.
Measurements are carried out in the microtiter plate. 50 μL HBSA buffer, 50 μL inhibitor solution of different concentrations (for control 50 μL HBSA buffer) and 50 μL of thrombin solution are pipetted into the wells of a microtiter plate. The plate is incubated at a temperature of 25° C. for 15 minutes. After incubation 50 μL of the chromogenic substrate is added and the microtiter plate is placed in the spectrophotometer (Tecan, Sunrise).
as §2, §3
Initial velocities of the reaction in the presence and absence of the inhibitor are measured. The change in the absorbance in the time unit (v) is calculated from the initial, linear part of the reaction. For competitive inhibitors it holds that
[formula] and it follows that
[formula] I=inhibitor concentration, S=substrate concentration, Km=Michaelis constant, vo=initial velocity of the reaction in the absence of inhibitor, vi=initial velocity of the reaction in the presence of inhibitor.
Measurements are carried out with two concentrations of the inhibitor and two concentrations of the substrate.

[1] = human thrombin 0.5 NIH units/mL, S-2238 40 and 20 μM, HBSA buffer pH 7.5, 25° C., read-out: Ki thrombin

Structure (SMILES) | Ki (Trypsin (bovine)) | Ki trypsin/ Ki thrombin (Trypsin (bovine)) | Ki (human thrombin; [1]) | Ki (human thrombin)
CCCCS(=O)(=O)Nc1ccc(C)n(CC(=O)NC2CCc3nc(N)sc3C2)c1=O (stereo not drawn) | 50 µM | 37 | 1.3 µM | 
Cc1ccc(NS(=O)(=O)Cc2ccccc2)c(=O)n1CC(=O)NC1CCc2nc(N)sc2C1 (stereo not drawn) | 260 µM | 1625 | 0.16 µM | 
Cc1ccc(NS(=O)(=O)Cc2cccc(C(F)(F)F)c2)c(=O)n1CC(=O)NC1CCc2nc(N)sc2C1 (stereo not drawn) | > 200 µM | >300 | 0.65 µM | 
Cc1ccc(NS(=O)(=O)Cc2ccccc2)c(=O)n1CC(=O)NCC1CCc2n[nH]cc2C1 (stereo not drawn) | 376 µM | 1790 | 0.21 µM | 
Cc1ccc(NS(=O)(=O)Cc2ccc(F)cc2Cl)c(=O)n1CC(=O)NCC1CCc2n[nH]cc2C1 (stereo not drawn) | > 300 µM | >1875 | 0.16 µM | 
Cc1ccc(NCCc2ccccc2)c(=O)n1CC(=O)NCC1CCc2n[nH]cc2C1 (stereo not drawn) | 421 µM | 526 | 0.82 µM | 
Cc1ccc(NS(=O)(=O)Cc2ccc(F)cc2Cl)c(=O)n1CC(=O)NC1CCc2nc(N)sc2C1 (stereo not drawn) | 193 µM | 1097 |  | 0.16 µM
Cc1ccc(NS(=O)(=O)Cc2ccccc2)c(=O)n1CC(=O)NC1CCc2n[nH]cc2C1 (stereo not drawn) | 438 µM | 93 | 4.7 µM | 
Cc1ccc(NCCc2ccccc2)c(=O)n1CC(=O)NC1CCc2nc(N)sc2C1 (stereo not drawn) | 147 µM | 213 | 0.69 µM | 
